In ChEMBL document CHEMBL1121374, “Analgesic narcotic antagonists. 4. 7-Methyl-N-(cycloalkylmethyl)-3-hydroxymorphinan-6-ones and -isomorphinan-6-ones” (1980) one finds ED50 data, which are given here for 24 molecules.

What all share (assay type): functional
Assay [1] concerns Rattus norvegicus. As to the kind of experiment: Antagonist activity in rat tail flick assay by intraperitoneal administration. In general terms: In hot-plate and tail-flick tests a longer latency is read as antinociception.
The next assay deals with Mus musculus. As to the kind of experiment: Compound was tested for analgesia in mouse writhing assay by subcutaneous administration. (An intraperitoneal irritant provokes the stretching counted in writhing tests.)
Assay [2] deals with Rattus norvegicus. As to the kind of experiment: Antagonist activity in rat tail flick assay by subcutaneous administration. To be noted: Rattus norvegicus, Tail, sc; read-out: ED50.
Setting [3] is: Rattus norvegicus, Tail, ip, read-out: ED50.
The mark [4] stands for this setting: Mus musculus, sc, read-out: ED50.

With `C[C@H]1C[C@H]2C3Cc4ccc(O)cc4C2(CCN3CC2CCC2)CC1=O` (stereo in doubt; 13C a), the ED50 is over 30 µmol/kg in the assay on Rattus norvegicus [1] (setting [3]) and 0.35 µM/kg with Mus musculus.
Regarding `COc1ccc2c(c1)C13CCN(C)C(C2)[C@@H]1[C@@H](C)[C@H](C)C(=O)C3` (some centres not stated), the ED50 in the assay with Mus musculus (setting [4]) was found to be 2.16 µmol/kg; in the assay on Rattus norvegicus [2] it was 17.9 µmol/kg.
Consider `CC[C@H]1[C@H](C)C(=O)CC23CCN(CC4CC4)C(Cc4ccc(O)cc42)[C@H]13` (some centres not stated), for which the ED50 is 2.23 µmol/kg with Rattus norvegicus [1] (setting [3]) and over 25 µmol/kg with Mus musculus (setting [4]).
Turning to `C[C@@H]1[C@@H](C)C(=O)CC23CCN(C)C(Cc4ccc(O)cc42)[C@@H]13` (some centres not stated), the ED50 with Mus musculus (setting [4]) is 0.58 µmol/kg; with Rattus norvegicus [2], 0.68 µmol/kg.
In the assay on Mus musculus, `COc1ccc2c(c1)C13CCN(CC4CCC4)C(C2)[C@@H]1C[C@H](C)C(=O)C3` (some centres not stated) displayed an ED50 of 0.58 µM/kg.
For `CC[C@@H]1[C@@H](C)C(=O)CC23CCN(CC4CC4)C(Cc4ccc(OC)cc42)[C@@H]13` (some centres not stated), the ED50 in the assay on Rattus norvegicus [1] (setting [3]) and in the assay on Mus musculus (setting [4]) was over 25 µmol/kg each time.
With `CN1CC[C@]23c4c5ccc(O)c4O[C@H]2[C@@H](O)C=C[C@H]3[C@H]1C5` [MORPHINE], the ED50 with Rattus norvegicus [2] is 19.3 µmol/kg.
As for `COc1ccc2c(c1)C13CCN(CC4CC4)C(C2)[C@H]1[C@H](C)[C@@H](C)C(=O)C3` (some centres not stated), the ED50 in the assay with Rattus norvegicus [1] (setting [3]) and with Mus musculus (setting [4]) was over 26 µmol/kg throughout.
On to `COc1ccc2c(c1)C13CCN(CC4CCC4)C(C2)[C@@H]1[C@@H](C)[C@H](C)C(=O)C3` (some centres not stated), for which the ED50 with Rattus norvegicus [1] (setting [3]) was over 25 µmol/kg; in the assay on Mus musculus (setting [4]), 15.8 µmol/kg.
`COc1ccc2c(c1)C13CCN(CC4CCC4)C(C2)[C@H]1C[C@@H](C)C(=O)C3` (some centres not stated): the ED50 in the assay on Mus musculus was found to be 20.3 µM/kg.
Regarding `C[C@@H]1C[C@@H]2C3Cc4ccc(O)cc4C2(CCN3CC2CCC2)CC1=O` (stereo in doubt; 13T a), the ED50 with Rattus norvegicus [1] was over 24 µM/kg; in the assay on Mus musculus it was 0.93 µM/kg.
As for `COc1ccc2c(c1)C13CCN(CC4CCC4)C(C2)[C@H]1[C@H](C)[C@@H](C)C(=O)C3` (some centres not stated), the ED50 in the assay on Rattus norvegicus [1] (setting [3]) and in the assay on Mus musculus (setting [4]) was over 25 µmol/kg throughout.
As to `CN1CC[C@]23c4c5ccc(O)c4O[C@H]2C(=O)CC[C@H]3[C@H]1C5` [HYDROMORPHONE], in the assay with Rattus norvegicus [2], the ED50 came out at 1.34 µmol/kg.
Consider `COc1ccc2c(c1)C13CCN(CC4CC4)C(C2)[C@H]1C[C@@H](C)C(=O)C3` (some centres not stated), for which the ED50 is 3.6 µmol/kg in the assay with Rattus norvegicus [1] (setting [3]) and over 25 µmol/kg with Mus musculus (setting [4]).
As to `CC[C@H]1[C@H](C)C(=O)CC23CCN(CC4CCC4)C(Cc4ccc(OC)cc42)[C@H]13` (some centres not stated), the ED50 in the assay on Rattus norvegicus [1] (setting [3]) is over 24 µmol/kg; in the assay with Mus musculus (setting [4]), 18.7 µmol/kg.
`C[C@H]1C[C@H]2C3Cc4ccc(O)cc4C2(CCN3CC2CCC2)CC1=O` (stereo in doubt; 13C) registered an ED50 with Mus musculus of 0.047 µM/kg.
With `CC[C@@H]1[C@@H](C)C(=O)CC23CCN(CC4CC4)C(Cc4ccc(O)cc42)[C@@H]13` (some centres not stated), the ED50 with Rattus norvegicus [1] (setting [3]) and in the assay on Mus musculus (setting [4]) was over 25 µmol/kg in each case.
With `COc1ccc2c(c1)C13CCN(C)C(C2)[C@H]1C[C@@H](C)C(=O)C3` (stereo in doubt; 6T a), the ED50 with Mus musculus is 15.7 µM/kg.
With `COc1ccc2c(c1)C13CCN(CC4CC4)C(C2)[C@H]1C[C@@H](C)C(=O)C3.Cl` (some centres not stated), the ED50 was 3.19 µM/kg with Rattus norvegicus [1] and over 40 µM/kg in the assay with Mus musculus.
`COc1ccc2c(c1)C13CCN(CC4CCC4)C(C2)[C@@H]1C[C@H](C)C(=O)C3.Cl` (some centres not stated): the ED50 in the assay on Rattus norvegicus [1] (setting [3]) is over 25 µmol/kg; in the assay on Mus musculus, 3.58 µM/kg.
`CC[C@@H]1[C@@H](C)C(=O)CC23CCN(CC4CCC4)C(Cc4ccc(OC)cc42)[C@@H]13` (some centres not stated): the ED50 in the assay with Rattus norvegicus [1] (setting [3]) and in the assay on Mus musculus (setting [4]) was over 25 µmol/kg each time.
Turning to `C[C@@H]1[C@@H](C)C(=O)CC23CCN(CC4CCC4)C(Cc4ccc(O)cc42)[C@@H]13` (some centres not stated), the values for the ED50 in the assay with Rattus norvegicus [1] (setting [3]) and in the assay on Mus musculus (setting [4]) were over 25 µmol/kg and 0.79 µmol/kg, respectively.
For `COc1ccc2c(c1)C13CCN(CC4CCC4)C(C2)[C@H]1C[C@@H](C)C(=O)C3.Cl` (some centres not stated), the ED50 is over 38 µmol/kg with Rattus norvegicus [1] (setting [3]) and 7.31 µM/kg in the assay on Mus musculus.
Turning to `CC[C@@H]1[C@@H](C)C(=O)CC23CCN(CC4CCC4)C(Cc4ccc(O)cc42)[C@@H]13` (some centres not stated), the ED50 in the assay with Rattus norvegicus [1] (setting [3]) and with Mus musculus (setting [4]) was over 25 µmol/kg each time.
